Tests used:
[1] = test system: A549-ACE2 infected with SARS-CoV-2; test: morphology score (similarity to uninfected cells); higher = more like uninfected cells; conditions: 24 h
[2] = test system: A549-ACE2 infected with SARS-CoV-2; test: cell count relative to DMSO; higher = less toxic; conditions: 24 h
[3] = test system: Vero E6; test: relative viability EC50 (midpoint between 100% and the lowest measured viability); higher = less toxic; conditions: 72 h
[4] = test system: U2OS; test: as above; conditions: 72 h
[5] = test system: Calu-3; test: as above; conditions: 72 h
[6] = test system: A549-ACE2 infected with SARS-CoV-2; test: SARS-CoV-2 infection rate relative to DMSO; higher = more infection; conditions: 24 h
[7] = test system: Caco-2; test: drug sensitivity score (DSS) for viability; higher = more toxic; extreme values may be limits of the assay; conditions: 72 h
[8] = test system: HepG2; test: as above; conditions: 72 h
[9] = test system: Vero E6; test: as above; conditions: 72 h
[10] = test system: U2OS; test: as above; conditions: 72 h
[11] = test system: Calu-3; test: as above; conditions: 72 h
[12] = test system: A549-ACE2; test: drug-induced phospholipidosis relative to tamoxifen; higher = more phospholipidosis
[13] = test system: Caco-2; test: cell viability relative to DMSO; higher = less toxic; conditions: 72 h
[14] = test system: HepG2; test: as above; conditions: 72 h
[15] = test system: Vero E6; test: as above; conditions: 72 h
[16] = test system: U2OS; test: as above; conditions: 72 h
[17] = test system: Calu-3; test: as above; conditions: 72 h
[18] = test system: A549-ACE2; test: phospholipidosis EC50; higher = less potent phospholipidosis inducer
[19] = test system: Caco-2; test: relative viability EC50 (midpoint between 100% and the lowest measured viability); higher = less toxic; conditions: 72 h
[20] = test system: HepG2; test: as above; conditions: 72 h

C[C@@H](NCCCc1cccc(C(F)(F)F)c1)c1cccc2ccccc12 [cinacalcet]
Conditions	SARS-CoV-2 infection rate [%]	cell count [%]	cell viability [%]	morphology score	phospholipidosis EC50 [µM]
[1], 0.3 µM	–	–	–	0.09	–
[1], 3 µM	–	–	–	0.67	–
[1], 10 µM	–	–	–	0.55	–
[2], 0.3 µM	–	96	–	–	–
[2], 3 µM	–	103	–	–	–
[2], 10 µM	–	87	–	–	–
[6], 0.3 µM	93	–	–	–	–
[6], 3 µM	59	–	–	–	–
[6], 10 µM	54	–	–	–	–
[13], 1 nM	–	–	99.8	–	–
[13], 10 nM	–	–	96.4	–	–
[13], 100 nM	–	–	100	–	–
[13], 1000 nM	–	–	89.1	–	–
[13], 10000 nM	–	–	68.4	–	–
[14], 1 nM	–	–	98	–	–
[14], 10 nM	–	–	102	–	–
[14], 100 nM	–	–	87.9	–	–
[14], 1000 nM	–	–	96.4	–	–
[14], 10000 nM	–	–	66.3	–	–
[15], 1 nM	–	–	102	–	–
[15], 10 nM	–	–	106	–	–
[15], 100 nM	–	–	104	–	–
[15], 1000 nM	–	–	101	–	–
[15], 10000 nM	–	–	82.2	–	–
[16], 1 nM	–	–	106	–	–
[16], 10 nM	–	–	95.8	–	–
[16], 100 nM	–	–	103	–	–
[16], 1000 nM	–	–	99.6	–	–
[16], 10000 nM	–	–	89.4	–	–
[17], 1 nM	–	–	109	–	–
[17], 10 nM	–	–	109	–	–
[17], 100 nM	–	–	101	–	–
[17], 1000 nM	–	–	98.6	–	–
[17], 10000 nM	–	–	7.3	–	–
[18], 24 h	–	–	–	–	2.77
[18], 48 h	–	–	–	–	4.97
[18], 72 h	–	–	–	–	5.11

Conditions	drug sensitivity score	relative viability EC50 [µM]
[3]	–	> 10
[4]	–	> 10
[5]	–	3.06
[7]	2.9	–
[8]	2.2	–
[9]	0.4	–
[10]	0	–
[11]	5.3	–

drug-induced phospholipidosis [%], [12]
Conditions	0.3 µM	0.833333 µM	3.33333 µM	6.66667 µM	10 µM	30 µM
24 h	3.21	8.87	65.6	89.9	102	53.7
48 h	2.84	6.54	45.1	87.9	107	–
72 h	4.18	6.97	37.3	82.3	102	–

CNc1cc(OC)c(C(=O)NC2CCN(Cc3ccccc3)C2C)cc1Cl (stereo unspecified) [nemonapride]
Conditions	SARS-CoV-2 infection rate, [6] [%]	cell count, [2] [%]	cell viability, [13] [%]	cell viability, [14] [%]	cell viability, [15] [%]	cell viability, [16] [%]	cell viability, [17] [%]	morphology score, [1]
1 nM	–	–	101	96	99.1	90.7	92.2	–
10 nM	–	–	104	96.1	91.9	99.4	98	–
100 nM	–	–	104	98.1	99.5	94.5	92.6	–
0.3 µM	100	99	–	–	–	–	–	-0.15
1000 nM	–	–	108	94.2	94.7	98.6	105	–
3 µM	61	111	–	–	–	–	–	0.69
10 µM	49	123	–	–	–	–	–	0.82
10000 nM	–	–	90.5	83.4	100	93.8	87.5	–
30 µM	16	122	–	–	–	–	–	0.86

Conditions	drug sensitivity score	relative viability EC50 [µM]
[3]	–	> 10
[4]	–	> 10
[5]	–	> 10
[7]	0	–
[8]	0.6	–
[9]	0	–
[10]	0	–
[11]	0	–
[19]	–	> 10
[20]	–	> 10

drug-induced phospholipidosis [%], [12]
Conditions	0.3 µM	0.833333 µM	3.33333 µM	6.66667 µM	10 µM	30 µM
24 h	1.28	6.8	10.9	12.3	18.5	51
48 h	3.09	4.55	12.9	15.7	16.3	43.9
72 h	5.92	4.8	14.4	19.3	24.2	53.2

Source: the supplement of paper PMC13380429
